Data set [1] in a line: Intrinsic clearance in rat hepatocytes assessed per million cells. It is filed as ADME, cell-based, Hepatocyte. The note with it: read-out: CLH.
For data set [2], the target named is T1, Muscarinic acetylcholine receptor M2 (Homo sapiens) (UniProt P08172).
T1 sequence (whole entry): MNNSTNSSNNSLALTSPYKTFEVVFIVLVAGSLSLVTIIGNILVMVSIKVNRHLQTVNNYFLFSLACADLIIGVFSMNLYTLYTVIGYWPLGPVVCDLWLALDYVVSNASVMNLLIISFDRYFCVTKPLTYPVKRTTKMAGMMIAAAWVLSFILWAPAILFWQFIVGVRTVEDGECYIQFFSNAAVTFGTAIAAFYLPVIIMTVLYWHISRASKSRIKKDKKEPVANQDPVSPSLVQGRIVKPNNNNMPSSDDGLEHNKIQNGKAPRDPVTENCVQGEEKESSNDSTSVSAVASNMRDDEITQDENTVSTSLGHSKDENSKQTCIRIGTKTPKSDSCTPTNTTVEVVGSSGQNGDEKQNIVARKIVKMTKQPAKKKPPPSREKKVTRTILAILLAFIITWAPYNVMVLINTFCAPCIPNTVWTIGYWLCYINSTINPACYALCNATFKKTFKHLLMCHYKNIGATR
Kind of data set: Activity at muscarinic acetylcholine receptor M2 (unknown origin) at <1 uM.

Data set [3] addresses T2, 5-hydroxytryptamine receptor 2C (Homo sapiens) (UniProt P28335).
T2 sequence (whole entry): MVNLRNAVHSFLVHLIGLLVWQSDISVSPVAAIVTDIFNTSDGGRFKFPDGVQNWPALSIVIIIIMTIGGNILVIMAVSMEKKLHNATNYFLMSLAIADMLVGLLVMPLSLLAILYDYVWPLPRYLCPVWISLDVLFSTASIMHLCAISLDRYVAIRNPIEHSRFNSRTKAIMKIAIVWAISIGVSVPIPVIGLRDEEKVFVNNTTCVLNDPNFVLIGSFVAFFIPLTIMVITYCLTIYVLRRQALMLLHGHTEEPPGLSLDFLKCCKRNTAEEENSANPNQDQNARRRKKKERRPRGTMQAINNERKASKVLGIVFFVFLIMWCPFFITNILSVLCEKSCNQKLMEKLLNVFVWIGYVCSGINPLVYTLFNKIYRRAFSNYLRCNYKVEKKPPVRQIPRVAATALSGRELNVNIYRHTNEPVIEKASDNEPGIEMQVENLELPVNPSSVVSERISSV
Kind of data set: Activity at 5HT2C receptor (unknown origin) at <1 uM.

In data set [4] the target is PAK2 (serine/threonine-protein kinase PAK 2) (Homo sapiens, UniProt Q13177). The data set is described as follows: Inhibition of N-terminal 6His-tagged recombinant human PAK2 (3-end residues) expressed in expressed in Escherichia coli at 100 nM.
Sequence of PAK2 (serine/threonine-protein kinase PAK 2) (Q13177 whole entry): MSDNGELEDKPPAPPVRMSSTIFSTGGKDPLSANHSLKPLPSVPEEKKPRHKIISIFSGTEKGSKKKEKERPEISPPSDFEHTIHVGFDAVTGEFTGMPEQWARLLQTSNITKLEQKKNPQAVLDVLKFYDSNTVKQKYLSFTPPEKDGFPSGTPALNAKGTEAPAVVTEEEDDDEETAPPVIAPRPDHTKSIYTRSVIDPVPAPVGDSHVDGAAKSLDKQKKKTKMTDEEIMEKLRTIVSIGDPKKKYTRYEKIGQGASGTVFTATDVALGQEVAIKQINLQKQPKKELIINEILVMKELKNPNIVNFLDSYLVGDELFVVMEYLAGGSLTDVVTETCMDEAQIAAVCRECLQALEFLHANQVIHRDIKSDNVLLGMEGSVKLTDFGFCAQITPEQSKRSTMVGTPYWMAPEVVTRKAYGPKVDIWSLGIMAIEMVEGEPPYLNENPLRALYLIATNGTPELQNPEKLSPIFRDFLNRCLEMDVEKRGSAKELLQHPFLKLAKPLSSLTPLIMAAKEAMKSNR
For data set [5], the target named is T3, Tyrosine-protein kinase Fyn (Homo sapiens, UniProt P06241). Kind of data set: Inhibition of N-Terminal His6-tagged full length recombinant human FYN expressed in baculovirus expression system.
Target sequence in this assay (P06241 whole entry): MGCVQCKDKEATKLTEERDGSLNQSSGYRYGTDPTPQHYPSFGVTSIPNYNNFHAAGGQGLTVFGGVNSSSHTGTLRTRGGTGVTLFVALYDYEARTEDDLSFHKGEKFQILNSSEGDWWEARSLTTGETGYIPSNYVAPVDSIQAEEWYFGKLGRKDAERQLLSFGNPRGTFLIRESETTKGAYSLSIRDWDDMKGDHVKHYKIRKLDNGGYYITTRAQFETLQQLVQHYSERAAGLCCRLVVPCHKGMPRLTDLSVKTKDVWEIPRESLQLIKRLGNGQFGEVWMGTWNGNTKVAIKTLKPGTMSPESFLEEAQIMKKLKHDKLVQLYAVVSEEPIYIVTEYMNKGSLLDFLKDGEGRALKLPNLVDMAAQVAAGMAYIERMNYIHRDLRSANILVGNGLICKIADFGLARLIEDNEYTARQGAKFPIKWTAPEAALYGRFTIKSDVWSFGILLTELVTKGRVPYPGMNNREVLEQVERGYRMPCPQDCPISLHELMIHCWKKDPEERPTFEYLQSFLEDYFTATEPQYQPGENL
Data set [6] concerns the target T3, Tyrosine-protein kinase Fyn. The data set is described as follows: Inhibition of N-Terminal His6-tagged full length recombinant human FYN expressed in baculovirus expression system at 100 nM.
Target sequence in this assay (P06241 2-537 limits assumed): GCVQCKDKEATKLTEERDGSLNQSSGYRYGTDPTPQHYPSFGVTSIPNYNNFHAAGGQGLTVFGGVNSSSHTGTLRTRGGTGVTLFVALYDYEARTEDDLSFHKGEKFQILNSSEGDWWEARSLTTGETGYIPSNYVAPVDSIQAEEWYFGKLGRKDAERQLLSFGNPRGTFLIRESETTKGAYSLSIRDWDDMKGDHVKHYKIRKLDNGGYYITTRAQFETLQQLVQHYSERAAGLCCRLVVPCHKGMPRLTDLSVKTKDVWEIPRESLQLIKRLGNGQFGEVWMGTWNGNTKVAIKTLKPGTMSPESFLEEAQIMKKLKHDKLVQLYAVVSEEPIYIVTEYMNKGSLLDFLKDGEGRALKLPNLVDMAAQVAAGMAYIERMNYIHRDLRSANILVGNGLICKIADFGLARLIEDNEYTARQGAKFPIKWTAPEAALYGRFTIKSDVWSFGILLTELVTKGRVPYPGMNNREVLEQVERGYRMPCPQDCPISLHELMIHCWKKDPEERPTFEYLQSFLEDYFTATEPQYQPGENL
In data set [7] the target is T4, Protein kinase C theta type (Homo sapiens, UniProt Q04759). The data set is described as follows: Inhibition of human PKCtheta at 100 nM.
Target sequence in this assay (Q04759 whole entry, looked up): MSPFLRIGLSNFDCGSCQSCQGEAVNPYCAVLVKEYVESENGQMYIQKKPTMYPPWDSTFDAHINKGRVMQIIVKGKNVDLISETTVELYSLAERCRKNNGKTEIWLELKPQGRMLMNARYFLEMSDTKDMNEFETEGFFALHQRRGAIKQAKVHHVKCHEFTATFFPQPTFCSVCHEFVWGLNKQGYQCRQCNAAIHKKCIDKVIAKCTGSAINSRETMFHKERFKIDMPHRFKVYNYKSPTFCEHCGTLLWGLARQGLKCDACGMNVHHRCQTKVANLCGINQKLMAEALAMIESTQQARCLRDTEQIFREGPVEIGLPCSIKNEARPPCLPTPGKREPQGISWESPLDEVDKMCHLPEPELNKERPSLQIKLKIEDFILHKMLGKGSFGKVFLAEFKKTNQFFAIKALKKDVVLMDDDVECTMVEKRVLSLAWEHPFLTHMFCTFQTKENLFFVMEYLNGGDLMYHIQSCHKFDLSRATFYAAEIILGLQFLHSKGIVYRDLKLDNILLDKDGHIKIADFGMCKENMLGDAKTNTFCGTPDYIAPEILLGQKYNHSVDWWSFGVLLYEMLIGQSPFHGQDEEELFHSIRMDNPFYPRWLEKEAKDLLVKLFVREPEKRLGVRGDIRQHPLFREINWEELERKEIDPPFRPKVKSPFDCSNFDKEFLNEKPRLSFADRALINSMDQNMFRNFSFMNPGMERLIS
Data set [8] deals with Tyrosine-protein kinase Yes (Homo sapiens, UniProt P07947). The data set is described as follows: Inhibition of N-terminal 6His-tagged full length recombinant human YES expressed in baculovirus expression system.
Sequence of Tyrosine-protein kinase Yes (P07947 whole entry): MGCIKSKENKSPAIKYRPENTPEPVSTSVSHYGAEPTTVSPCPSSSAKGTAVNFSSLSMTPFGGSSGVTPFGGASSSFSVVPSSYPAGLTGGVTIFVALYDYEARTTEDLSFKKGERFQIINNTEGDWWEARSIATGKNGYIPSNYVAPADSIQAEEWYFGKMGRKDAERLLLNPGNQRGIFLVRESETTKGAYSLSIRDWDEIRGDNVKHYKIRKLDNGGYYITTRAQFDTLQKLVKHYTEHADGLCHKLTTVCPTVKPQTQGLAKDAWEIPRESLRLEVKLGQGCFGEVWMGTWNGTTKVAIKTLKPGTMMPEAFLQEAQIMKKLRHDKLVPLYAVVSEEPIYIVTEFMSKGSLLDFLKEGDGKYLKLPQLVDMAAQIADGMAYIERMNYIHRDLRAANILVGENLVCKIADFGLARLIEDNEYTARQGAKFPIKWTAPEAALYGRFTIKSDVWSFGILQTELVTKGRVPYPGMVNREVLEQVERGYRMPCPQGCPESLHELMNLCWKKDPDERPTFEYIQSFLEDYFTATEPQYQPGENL
Data set [9] has as its target 5-hydroxytryptamine receptor 2B (Homo sapiens) (UniProt P41595). The data set is described as follows: Activity at 5HT2B receptor (unknown origin) at <1 uM.
In data set [10] the target is T4, Protein kinase C theta type. The data set is described as follows: Inhibition of C-terminal 6His-tagged recombinant full length human PKCtheta expressed in fall armyworm Sf21 cells.
Target sequence in this assay (Q04759 whole entry): as the sequence (Q04759 whole entry, looked up) above
In data set [11] the target is Proto-oncogene tyrosine-protein kinase Src (Homo sapiens, UniProt P12931). The data set is described as follows: Inhibition of N-terminal His6-tagged recombinant human Src (1 to 530 residues) expressed in baculovirus infected sf21 cells at 100 nM.
Sequence of Proto-oncogene tyrosine-protein kinase Src (P12931 2-536 limits assumed): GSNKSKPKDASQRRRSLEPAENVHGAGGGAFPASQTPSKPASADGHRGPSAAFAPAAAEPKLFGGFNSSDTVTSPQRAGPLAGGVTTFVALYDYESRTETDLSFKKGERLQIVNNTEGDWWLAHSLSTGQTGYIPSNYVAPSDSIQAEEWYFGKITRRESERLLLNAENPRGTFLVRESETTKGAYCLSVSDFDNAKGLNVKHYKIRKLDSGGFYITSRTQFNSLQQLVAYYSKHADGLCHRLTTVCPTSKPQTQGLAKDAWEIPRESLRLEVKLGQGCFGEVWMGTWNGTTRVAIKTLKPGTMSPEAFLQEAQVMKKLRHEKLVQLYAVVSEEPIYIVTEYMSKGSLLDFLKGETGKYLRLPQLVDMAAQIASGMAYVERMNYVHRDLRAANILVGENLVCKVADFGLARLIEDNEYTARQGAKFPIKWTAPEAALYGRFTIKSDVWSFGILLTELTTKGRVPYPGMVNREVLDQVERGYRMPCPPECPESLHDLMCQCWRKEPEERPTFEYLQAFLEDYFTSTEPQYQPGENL
Data set [12] addresses T5, Muscarinic acetylcholine receptor M5 (Homo sapiens) (UniProt P08912).
T5 sequence (whole entry): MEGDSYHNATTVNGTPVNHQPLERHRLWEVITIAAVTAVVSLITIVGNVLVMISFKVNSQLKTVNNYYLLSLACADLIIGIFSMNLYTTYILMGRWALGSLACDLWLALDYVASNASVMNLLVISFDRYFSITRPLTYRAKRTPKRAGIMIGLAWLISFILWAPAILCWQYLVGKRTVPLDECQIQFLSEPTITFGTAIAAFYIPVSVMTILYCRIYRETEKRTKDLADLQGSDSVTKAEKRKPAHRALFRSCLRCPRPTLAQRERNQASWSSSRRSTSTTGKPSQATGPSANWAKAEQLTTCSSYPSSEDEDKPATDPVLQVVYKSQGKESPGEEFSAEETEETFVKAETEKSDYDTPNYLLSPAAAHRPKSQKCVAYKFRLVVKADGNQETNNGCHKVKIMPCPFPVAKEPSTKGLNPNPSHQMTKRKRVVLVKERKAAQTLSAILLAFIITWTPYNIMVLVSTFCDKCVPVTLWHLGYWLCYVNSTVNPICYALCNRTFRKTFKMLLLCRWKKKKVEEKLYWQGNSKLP
The data set is described as follows: Activity at muscarinic acetylcholine receptor M5 (unknown origin) at <1 uM.

Data set [13] addresses T6, Tyrosine-protein kinase Lck (Homo sapiens, UniProt P06239). The data set is described as follows: Inhibition of N-terminal 6His-tagged full length recombinant human LCK expressed in baculovirus expression system.
Target sequence in this assay (P06239 whole entry): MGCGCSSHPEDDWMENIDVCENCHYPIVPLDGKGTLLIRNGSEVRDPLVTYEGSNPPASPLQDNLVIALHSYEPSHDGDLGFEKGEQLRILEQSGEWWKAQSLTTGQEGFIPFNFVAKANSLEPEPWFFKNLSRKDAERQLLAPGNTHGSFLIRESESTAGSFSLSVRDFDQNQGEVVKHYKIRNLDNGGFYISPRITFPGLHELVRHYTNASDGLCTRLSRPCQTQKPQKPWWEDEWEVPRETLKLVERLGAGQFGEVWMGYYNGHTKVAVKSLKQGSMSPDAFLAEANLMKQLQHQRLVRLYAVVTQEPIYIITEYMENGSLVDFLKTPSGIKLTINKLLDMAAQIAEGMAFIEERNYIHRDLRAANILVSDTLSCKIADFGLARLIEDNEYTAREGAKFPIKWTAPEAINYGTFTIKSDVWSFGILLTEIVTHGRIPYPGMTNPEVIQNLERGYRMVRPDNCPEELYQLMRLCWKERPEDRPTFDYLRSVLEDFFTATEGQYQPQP
Data set [14] deals with T6, Tyrosine-protein kinase Lck. Particulars: Sf21, 100 nM.
Target sequence in this assay (P06239 2-509 limits assumed): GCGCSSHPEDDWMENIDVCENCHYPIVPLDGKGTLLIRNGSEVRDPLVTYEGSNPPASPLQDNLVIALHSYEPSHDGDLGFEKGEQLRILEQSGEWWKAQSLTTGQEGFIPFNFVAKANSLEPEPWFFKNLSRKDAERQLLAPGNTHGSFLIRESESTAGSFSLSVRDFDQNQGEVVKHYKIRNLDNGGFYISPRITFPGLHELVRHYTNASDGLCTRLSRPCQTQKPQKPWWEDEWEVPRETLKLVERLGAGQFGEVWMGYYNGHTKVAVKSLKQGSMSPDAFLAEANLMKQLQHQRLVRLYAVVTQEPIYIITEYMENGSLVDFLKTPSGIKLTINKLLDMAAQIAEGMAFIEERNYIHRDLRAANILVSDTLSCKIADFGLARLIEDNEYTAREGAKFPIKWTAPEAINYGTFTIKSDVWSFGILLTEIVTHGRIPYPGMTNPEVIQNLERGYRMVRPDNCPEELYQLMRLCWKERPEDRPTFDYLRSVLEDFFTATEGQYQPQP
Description: Inhibition of N-terminal 6His-tagged full length recombinant human LCK expressed in baculovirus infected Sf21 cells at 100 nM
Data set [15] in a line: Distribution coefficient, logD of the compound. The format is physicochemical. The note with it: octanol/water.
The target of data set [16] is Serine/threonine-protein kinase PAK 2 (Homo sapiens, UniProt Q13177).
Sequence of Serine/threonine-protein kinase PAK 2 (Q13177 whole entry): as the sequence (Q13177 whole entry) above
Description: Binding affinity to human PAK2 (P151 to R525 residues) expressed in bacterial expression system by KINOMEscan assay
The target in data set [17] is T7, Alpha-1B adrenergic receptor (Homo sapiens) (UniProt P35368).
T7 sequence (whole entry): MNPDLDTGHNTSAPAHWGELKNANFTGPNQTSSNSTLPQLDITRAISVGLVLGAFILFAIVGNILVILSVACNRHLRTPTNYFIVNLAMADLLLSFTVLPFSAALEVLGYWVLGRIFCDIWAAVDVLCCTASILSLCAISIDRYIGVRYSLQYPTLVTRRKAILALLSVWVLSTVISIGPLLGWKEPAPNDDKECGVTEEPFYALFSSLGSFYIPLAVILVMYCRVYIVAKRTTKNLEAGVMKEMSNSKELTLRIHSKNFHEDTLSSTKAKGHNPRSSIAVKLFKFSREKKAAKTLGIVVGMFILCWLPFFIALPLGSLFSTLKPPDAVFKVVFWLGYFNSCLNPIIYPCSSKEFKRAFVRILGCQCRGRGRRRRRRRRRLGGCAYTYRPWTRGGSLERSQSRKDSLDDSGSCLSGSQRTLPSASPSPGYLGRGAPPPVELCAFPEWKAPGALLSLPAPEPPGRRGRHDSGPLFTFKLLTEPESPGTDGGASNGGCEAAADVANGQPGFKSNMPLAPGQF
The data set is described as follows: Activity at alpha-1B adrenergic receptor (unknown origin) at <1 uM.

Activity calls are given as the source filed them. No cut-off for these calls is given here.

Sequence of 5-hydroxytryptamine receptor 2B (Homo sapiens) (P41595 whole entry): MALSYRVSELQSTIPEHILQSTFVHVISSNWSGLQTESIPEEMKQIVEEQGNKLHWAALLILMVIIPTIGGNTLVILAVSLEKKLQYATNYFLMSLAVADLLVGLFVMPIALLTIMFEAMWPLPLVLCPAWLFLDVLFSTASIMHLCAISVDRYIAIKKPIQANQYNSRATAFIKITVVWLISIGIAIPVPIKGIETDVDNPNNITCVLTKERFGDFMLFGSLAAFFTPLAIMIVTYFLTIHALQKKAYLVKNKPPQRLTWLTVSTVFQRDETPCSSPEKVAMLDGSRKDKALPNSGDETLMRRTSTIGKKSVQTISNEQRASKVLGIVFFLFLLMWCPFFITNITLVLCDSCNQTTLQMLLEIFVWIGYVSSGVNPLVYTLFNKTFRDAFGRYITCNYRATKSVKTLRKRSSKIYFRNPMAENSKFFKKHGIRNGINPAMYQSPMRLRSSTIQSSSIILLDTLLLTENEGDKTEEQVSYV

Usually inhibition stands for how much of the control response was suppressed. In general, IC50 refers to the concentration that gives 50% inhibition. As usually defined, the logD is lipophilicity at a set pH, counting ionised and neutral species. Read a low logD as lower lipophilicity. The Kd is the equilibrium constant for the complex coming apart. Read a high Kd as weaker binding. For the compound `CCS(=O)(=O)c1cc(Nc2ncc(F)c(N(Cc3ccccc3C#N)c3cc(CO)ccc3C)n2)ccc1N1CCN(C)CC1`, the hepatocyte CLint in data set [1] worked out at 30 µL/min/1e6 cells. Further, the result in data set [2], in data set [3], in data set [9], in [12] and in data set [17] was Active. In data set [4], the inhibition at 0.1 µM is 98%. Besides, the IC50 in [5] was determined as 45 nM; in data set [8], 4 nM; in [10], 7 nM; in data set [13] it was 36 nM. The inhibition is 87% in [6], 91% in data set [7], 86% in data set [11] and 83% in data set [14]. In [15], this compound came in with a logD of 3.7. In data set [16], the equilibrium dissociation constant (Kd) was found to be 0.32 nM.

Values taken from ChEMBL document CHEMBL3864184, “Optimization of Highly Kinase Selective Bis-anilino Pyrimidine PAK1 Inhibitors” (ACS Med Chem Lett, 2016).
